Data on ten compounds can be found in patent US20160297851A1, “BROAD SPECTRUM […]” (priority 2012, published 2016).

Values after ≈ are worked out from the molar mass of the structure shown. Read-outs that look alike come from different tables or passages of the source.

Assay [1] deals with wild type E. coli MG1655. In words: microbe, parasite or virus in culture. It counts as cell-based, Escherichia coli.
Assay [2] concerns Lactococcus lactis. Nature of the assay: microbe, parasite or virus in culture. The following applies: Lactococcus lactis, several values = different isolates/subspecies; read-out: MIC. It counts as cell-based.
The test system of assay [3] is wild type S. epidermidis RP62A. Nature of the assay: microbe, parasite or virus in culture. In kind it is cell-based, Staphylococcus epidermidis. The following applies: for MIC: Sensitive strain (SPase without the resistance-conferring Pro); for minimal inhibitory concentration (MIC): Table 3, P3 position derivatives, unit not given.
The test system of assay [4] is Brevibacillus brevis ATCC 8246. In words: microbe, parasite or virus in culture. It counts as cell-based. Conditions: ATCC8246.
Assay [5] concerns lepB(P29S) S. aureus 8325. In words: microbe, parasite or virus in culture. It counts as cell-based, Staphylococcus aureus. Conditions: for MIC: Sensitive (genetically sensitized) strain; for minimal inhibitory concentration (MIC): Table 3, P3 position derivatives, unit not given.
For assay [6], the system named is Streptococcus agalactiae COH-1. In words: microbe, parasite or virus in culture. In kind it is cell-based.
Assay [7] has as its system Rhodococcus equi ATCC 6939. In words: microbe, parasite or virus in culture. It counts as cell-based. The following applies: Rhodococcus (subgen. Prescottella) equi, ATCC6939.
Assay [8] deals with Rhodococcus opacus DSM 1069. In words: microbe, parasite or virus in culture. In kind it is cell-based. The following applies: Rhodococcus opacus, DSM1069; read-out: MIC.
In assay [9] the test system is Corynebacterium efficiens DSM 44549. Nature of the assay: microbe, parasite or virus in culture. It counts as cell-based. The following applies: Corynebacterium efficiens, DSM44549; read-out: MIC.
Assay [10] has as its system Streptococcus pyogenes M1-5448. Nature of the assay: microbe, parasite or virus in culture. In kind it is cell-based. The following applies: Streptococcus pyogenes, M15448; read-out: MIC.
For assay [11], the system named is Streptococcus pneumoniae R800. In words: microbe, parasite or virus in culture. In kind it is cell-based. The following applies: Streptococcus pneumoniae, R800; read-out: MIC.
The test system of assay [12] is lepB(P84L) E. coli MG1655. In words: microbe, parasite or virus in culture. It counts as cell-based, Escherichia coli. The following applies: for MIC: Escherichia coli, MG1655, Sensitive (genetically sensitized) strain, read-out: MIC; for minimal inhibitory concentration (MIC): Table 3, P3 position derivatives, unit not given.
The test system of assay [13] is lepB(P84L) P. aeruginosa PAO1. Nature of the assay: microbe, parasite or virus in culture. It counts as cell-based, Pseudomonas aeruginosa. The following applies: for MIC: Pseudomonas aeruginosa, PAO1, Sensitive (genetically sensitized) strain, read-out: MIC; for minimal inhibitory concentration (MIC): Table 3, P3 position derivatives, unit not given.
In assay [14] the test system is Corynebacterium glutamicum DSM 44475. In words: microbe, parasite or virus in culture. It counts as cell-based. The following applies: DSM44475.
The test system of assay [15] is spsB(S29P) S. epidermidis RP62A. Nature of the assay: microbe, parasite or virus in culture. In kind it is cell-based, Staphylococcus epidermidis.
Assay [16] has as its system wild type S. aureus 8325. Nature of the assay: microbe, parasite or virus in culture. It counts as cell-based, Staphylococcus aureus.
Assay [17] relates to wild type P. aeruginosa PAO1. Nature of the assay: microbe, parasite or virus in culture. It counts as cell-based, Pseudomonas aeruginosa.
For assay [18], the system named is Gram-negative strains (E. coli, P. aeruginosa). In words: MIC panel. The following applies: for activity in words: wild type or mutant Gram-negative strains. It counts as cell-based.
For assay [19], the system named is S. epidermidis, S. aureus, E. coli, and P. aeruginosa. Nature of the assay: MIC panel. It counts as cell-based. The following applies: all bacteria / organisms tested.
Assay [20] deals with Gram-positive bacteria (S. epidermidis, S. aureus). In words: MIC panel. In kind it is cell-based.
Assay [21] deals with S. epidermidis ATCC 35984. In words: MIC of selected compounds. It counts as cell-based. Conditions: Table 1.
The test system of assay [22] is S. epidermidis PAS9002 (SPase S31P). It counts as cell-based, Staphylococcus epidermidis.
The subject of assay [23] is P. aeruginosa PAS2006 (SPase P84S). In kind it is cell-based, Pseudomonas aeruginosa.
Assay [24] concerns E. coli PAS0232 (SPase P84S). In kind it is cell-based, Escherichia coli.
[25] abbreviates: Escherichia coli, MG1655, Resistant strain (wild type), read-out: MIC.
[26] abbreviates: Staphylococcus epidermidis, read-out: MIC.
Setting [27] is: Staphylococcus aureus, read-out: MIC.
Where [28] appears, read: Staphylococcus aureus, Resistant strain (wild type), read-out: MIC.
The mark [29] stands for this setting: Pseudomonas aeruginosa, PAO1, Resistant strain (wild type), read-out: MIC.

On to `CCCCCCCCCCCCCCCC(=O)N(C)[C@H](CO)C(=O)N[C@H](C)C(=O)NCC(=O)N(C)[C@@H]1C(=O)N[C@@H](C)C(=O)N[C@H](C(=O)O)Cc2cc(c(O)c([N+](=O)[O-])c2)-c2cc1ccc2O` [Arylomycin B-C16, arylomycin B-C16], for which the activity in words result in assay [1] is “no activity”; in assay [3], “potent activity”; in [5] it was “has activity”; in [12], “has activity”; in assay [13], “has activity”. In addition, the MIC in [1] (setting [25]) was over 64 µg/mL; in assay [2], 32 µg/mL (≈ 34.6 µM); in assay [3] (setting [26]), 0.13 µg/mL (≈ 0.14 µM); in [4] it was over 64 µg/mL; in assay [5] (setting [27]), 8 µg/mL; in assay [6] (Streptococcus agalactiae, COH1), 8 µg/mL (≈ 8.64 µM). Besides, the MIC in assay [7] is 32 µg/mL (≈ 34.6 µM); in assay [8], 4 µg/mL (≈ 4.32 µM); in [9], 16 µg/mL (≈ 17.3 µM); in assay [10], 4 µg/mL (≈ 4.32 µM); in assay [11] it was 16 µg/mL (≈ 17.3 µM); in assay [12] it was 2 µg/mL. Moreover, the MIC was determined as 4 µg/mL in assay [13] and 2 µg/mL (≈ 2.16 µM) in assay [14]. Also, the “fold more activity than arylomycin C16” value in [6] was “greater than 16 fold”.

Turning to `CCCCCCCCCCCCCCCC(=O)N(C)[C@H](CO)C(=O)N(C)[C@H](C)C(=O)NCC(=O)N(C)[C@@H]1C(=O)N[C@@H](C)C(=O)N[C@H](C(=O)O)Cc2ccc(O)c(c2)-c2cc1ccc2O` [Compound 18], the activity in words entry in assay [15] is “retained full activity”; in [18] it was “complete loss of activity”. Besides, the MIC in assay [15] (setting [26]), in [1] (setting [25]), in assay [3] (setting [26]), in assay [5] (setting [27]), in assay [16] (setting [28]) and in assay [17] (setting [29]) was over 64 µg/mL each time. For the same compound, the MIC in assay [12] and in assay [13] was over 64 µg/mL throughout.

Regarding `CCCCCCCCCCCCCCCC(=O)N(C)[C@H](CO)CC(=O)N[C@H](C)C(=O)NCC(=O)N(C)[C@@H]1C(=O)N[C@@H](C)C(=O)N[C@H](C(=O)O)Cc2ccc(O)c(c2)-c2cc1ccc2O` [Compound 23], the MIC in assay [15] (setting [26]) is 8 µg/mL (≈ 8.94 µM); in assay [1] (setting [25]) it was over 64 µg/mL; in assay [3] (setting [26]), 4 µg/mL (≈ 4.47 µM); in assay [5] (setting [27]), 16 µg/mL; in assay [16] (setting [28]), 64 µg/mL; in assay [17] (setting [29]), over 64 µg/mL. Moreover, the MIC in [12] and in assay [13] was over 64 µg/mL each time. In assay [16], the activity in words result is recorded as “gain activity”.

On to `CCCCCCCCCCCCCCCC(=O)N(C)[C@H](CO)CCC(=O)N[C@H](C)C(=O)NCC(=O)N(C)[C@@H]1C(=O)N[C@@H](C)C(=O)N[C@H](C(=O)O)Cc2ccc(O)c(c2)-c2cc1ccc2O` [Compound 24], for which the MIC was 16 µg/mL (≈ 17.6 µM) in assay [15] (setting [26]); over 64 µg/mL in assay [1] (setting [25]); 8 µg/mL (≈ 8.8 µM) in [3] (setting [26]); 4 µg/mL in assay [5] (setting [27]); 16 µg/mL in [16] (setting [28]); over 64 µg/mL in [17] (setting [29]). Also, the MIC in assay [12] and in assay [13] was over 64 µg/mL each time.

On to `CCCCCCCCCCCCCCCC(=O)N(C)[C@H](CO)C(=O)N[C@H](C)C(=O)NCC(=O)N(C)[C@@H]1C(=O)N[C@@H](C)C(=O)N[C@H](C(=O)O)Cc2ccc(O)c(c2)-c2cc1ccc2O` [Compound 25], for which the MIC in assay [3] (setting [26]) stood at 32 µg/mL (≈ 36.3 µM); in assay [5] (setting [27]) it was 64 µg/mL. In [18], the activity in words entry is “no activity”.

`CCCCCCCCCCCCCCCC(=O)N(C)[C@H](CO)C(=O)N[C@H](C)C(=O)NCC(=O)N(C)[C@@H]1C(=O)N[C@@H](CCCO)C(=O)N[C@H](C(=O)O)Cc2ccc(O)c(c2)-c2cc1ccc2O` [Compound 31]: the “minimal inhibitory concentration (MIC)” value in [3], in assay [5], in assay [12] and in [13] was over 64 each time. Also, the activity in words result in [19] is “All activity was lost”.

With `CCCCCCCCCCCCCCCC(=O)N(C)[C@H](CO)C(=O)N[C@H](C)C(=O)NCC(=O)N(C)[C@@H]1C(=O)N[C@@H](CCCCO)C(=O)N[C@H](C(=O)O)Cc2ccc(O)c(c2)-c2cc1ccc2O` [Compound 32], the “minimal inhibitory concentration (MIC)” value in [3], in assay [5], in [12] and in [13] was over 64 throughout. Moreover, the activity in words result in assay [19] is reported as “All activity was lost”.

On to `CCCCCCCCCCCCCCCC(=O)N(C)[C@H](CO)C(=O)N[C@H](C)C(=O)NCC(=O)N(C)[C@@H]1C(=O)N[C@@H](C)C(=O)N[C@H](C(=O)O)Cc2cc(N)c(O)c(c2)-c2cc1ccc2O` [Compound 36], for which the MIC in assay [1] (setting [25]) was over 64 µg/mL; in assay [3] (setting [26]) it was 8 µg/mL (≈ 8.93 µM); in assay [4] it was over 64 µg/mL. Besides, the entries for the “fold loss of activity relative to the parent compounds” value in assay [20] and in assay [18] (Gram-negative pathogens) were 32 fold and 8 fold, respectively.

For arylomycin A2 [reference compound], the MIC is over 128 µM in [1] (Table 1, E. coli MG1655); over 128 µM in assay [16] (Table 1, S. aureus 8325); 1 µM in assay [21].

arylomycin C16: the MIC in assay [15] was 8 µg/mL; in [1] (Resistant strain (wild type)) it was over 128 µg/mL; in assay [3] it was 0.25 µg/mL; in assay [5], 2 µg/mL; in assay [16] (Resistant strain (wild type)) it was over 128 µg/mL; in [17] (Resistant strain (wild type)), over 128 µg/mL. In addition, the MIC is over 128 µg/mL in [22], 8 µg/mL in assay [23] and 2 µg/mL in [24].
